The text below walks through data of PMC6376031, “Enhanced anti-tumor activity of the Multi-Leu peptide PACE4 inhibitor transformed into an albumin-bound tumor-targeting prodrug” (Scientific Reports, 2019).

Details of series [1]: method as in PMID 25682874. As to conditions: cited from earlier work.
The next series is described as follows: in vitro. The series is classed as in vitro ADME. The settings on record: mouse, plasma. The source says:
Figure 1S. Plasma ex vivo stability profile of the ML and C23 inhibitor determined by Ultra Performance Liquid Chromatography (UPLC).

Series [2] relates to DU145 cells. As to conditions: 72 h. How it is done:
(§1) The inhibitory constant (Ki) was calculated from the IC50 values using the equation of Cheng and Prusoff. Data are the mean ± SD of three independent experiments. The concentration of peptides that inhibited cell growth by 50% (IC50) was determined by MTT cell survival assays in DU145 and LNCaP cell lines. Data represent the mean ± SEM of three independent experiments. Acute cytotoxicity of the compounds at the selected concentrations was measured by lactate dehydrogenase (LDH) assay after 4 h of incubation with DU145 cells. […] Previously published compound: [a] ref.[12]. ML inhibitor was used as control and was re-assayed in presented experiments.
(§2) DU145 and LNCaP cells were maintained at low passages (below 30) and cultured in RPMI 1640 (Wisent Bioproducts, QC) with 5 and 10% fetal bovine serum, respectively. For MTT proliferation assays 3500 LNCaP (on poly-L-lysine coated wells) or 1500 DU145 cells were seeded in 96-well plates, and after 24 h, the cells were treated with various concentrations of inhibitors (from 300 to 1 μM). Next, the cells were incubated for 72 h with peptides prior to addition of MTT reagent (Sigma–Aldrich, Canada) at a final concentration of 1 mg/mL. Formazan salt was solubilized with 50 μL DMSO and the metabolic activity was normalized relatively to vehicle-treated cells (sterile bi-distilled water). IC50 values were determined using Prism 5.0 (GraphPad Software, USA), as previously described. For LDH assay, the LDH Cytotoxicity Detection Kit (Promega, USA) was used to quantify the release of lactate dehydrogenase following membrane disruption. As described in our previous work[15], DU145 cells were seeded at a density of 3000 cells/well and allowed to incubate for 24 h. Then, the media was subsequently replaced and cells were incubated with compounds at the selected concentration. Cells treated with 1% SDS were used as a control for maximal LDH release and further relative quantification.

Another series has as its system LNCaP cells. The settings on record: 72 h. How it is done: as §1, §2
Another series has as its target T1, recombinant human PACE4 (Homo sapiens, UniProt P29122).
T1 construct: made in house
T1 sequence (P29122 150-969): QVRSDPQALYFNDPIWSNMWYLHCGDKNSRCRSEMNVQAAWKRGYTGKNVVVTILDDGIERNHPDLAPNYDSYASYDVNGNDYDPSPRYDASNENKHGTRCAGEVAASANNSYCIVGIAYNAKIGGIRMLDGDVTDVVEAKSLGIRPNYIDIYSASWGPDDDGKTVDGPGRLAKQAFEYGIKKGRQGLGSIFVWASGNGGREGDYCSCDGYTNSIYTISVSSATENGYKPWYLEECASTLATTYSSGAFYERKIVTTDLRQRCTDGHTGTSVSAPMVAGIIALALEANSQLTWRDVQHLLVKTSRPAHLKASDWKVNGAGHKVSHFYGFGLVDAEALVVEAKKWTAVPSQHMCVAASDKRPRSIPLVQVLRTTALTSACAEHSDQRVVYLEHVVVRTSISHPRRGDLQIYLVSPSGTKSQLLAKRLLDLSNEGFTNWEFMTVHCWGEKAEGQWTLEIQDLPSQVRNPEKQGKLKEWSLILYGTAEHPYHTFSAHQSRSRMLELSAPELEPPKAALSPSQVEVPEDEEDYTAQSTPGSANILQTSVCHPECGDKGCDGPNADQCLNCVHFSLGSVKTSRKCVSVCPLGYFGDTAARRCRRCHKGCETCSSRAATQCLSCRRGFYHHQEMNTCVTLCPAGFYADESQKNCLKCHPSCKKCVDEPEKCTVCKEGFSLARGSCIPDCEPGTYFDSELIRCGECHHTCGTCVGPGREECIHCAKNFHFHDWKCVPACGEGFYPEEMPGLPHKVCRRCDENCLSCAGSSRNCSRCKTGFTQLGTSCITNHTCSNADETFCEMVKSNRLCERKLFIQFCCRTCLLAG
As to the kind of experiment: Enzyme kinetic inhibition of recombinant hPACE4. Type of series: biochemical. As to conditions: calculated from IC50 by Cheng and Prusoff, mean ± SD of three experiments. The procedure: as §1
Enzyme kinetic measurements were performed with recombinant hPACE4 as described previously. Enzyme and substrate concentrations used in the present study are presented in Supplementary Table S2.

The subject of series [3] is DU145 cells. Description: LDH release acute cytotoxicity assay. The series is classed as cell-based. As to conditions: for LDH release DU145: 4 h incubation, selected concentrations. The procedure: as §1, §2
The target of series [4] is T2, mouse serum albumin (MSA) (Mus musculus, UniProt P07724).
T2 construct: purchased Equitech-Bio; Inc., USA
T2 sequence (P07724 25-608): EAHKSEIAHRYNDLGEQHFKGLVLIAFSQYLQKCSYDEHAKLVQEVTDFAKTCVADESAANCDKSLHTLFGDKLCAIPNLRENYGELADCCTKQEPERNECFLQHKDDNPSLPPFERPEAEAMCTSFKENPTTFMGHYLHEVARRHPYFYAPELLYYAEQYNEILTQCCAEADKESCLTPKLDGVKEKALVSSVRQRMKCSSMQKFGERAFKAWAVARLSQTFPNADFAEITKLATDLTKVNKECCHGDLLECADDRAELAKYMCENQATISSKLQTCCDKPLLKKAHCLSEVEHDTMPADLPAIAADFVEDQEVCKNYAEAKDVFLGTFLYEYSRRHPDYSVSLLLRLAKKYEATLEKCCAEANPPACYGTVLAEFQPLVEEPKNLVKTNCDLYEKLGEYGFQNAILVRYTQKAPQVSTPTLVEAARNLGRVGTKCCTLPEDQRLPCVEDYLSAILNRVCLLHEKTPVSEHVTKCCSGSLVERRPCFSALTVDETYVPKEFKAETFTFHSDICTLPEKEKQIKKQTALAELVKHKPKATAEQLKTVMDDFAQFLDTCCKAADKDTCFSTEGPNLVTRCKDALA
As to the kind of experiment: MSA conjugation assay. Type of series: binding. The settings on record: PBS pH 7.4, 37 °C; RP-HPLC and MALDI-TOF. From the text:
RP-HPLC and MALDI-TOF analysis were used to confirm completion of the reaction.

For a further series, the target named is T3, human PSA (hPSA) (Homo sapiens, UniProt P07288).
T3 construct: enzymatically active hPSA extracted from seminal fluid (Millipore, USA); purchased Millipore, USA; host or cells: human seminal fluid
T3 sequence (P07288 25-261): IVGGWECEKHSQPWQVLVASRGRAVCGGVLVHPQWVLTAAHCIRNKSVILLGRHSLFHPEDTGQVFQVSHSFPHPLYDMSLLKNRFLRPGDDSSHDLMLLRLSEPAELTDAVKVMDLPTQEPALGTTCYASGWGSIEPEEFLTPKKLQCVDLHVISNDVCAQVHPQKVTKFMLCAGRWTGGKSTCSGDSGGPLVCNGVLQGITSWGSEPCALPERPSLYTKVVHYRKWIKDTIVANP
Description: hPSA cleavage of prodrugs. Type of series: biochemical. As to conditions: extended incubation time up to 24 h; RP-HPLC. How it is done: To determine PSA cleavage efficiency, peptide (125 µM final concentration; approximately 20 µg) were incubated with a final concentration of 20 µg/mL of enzymatically active hPSA extracted from seminal fluid (Millipore, USA) in 50 mM Tris buffer pH 7.4. Samples were analyzed by RP-HPLC (using 35 µL of the reaction solution) by comparing the resulting cleavage product over a standard curve generated using a synthetic cleaved peptide (peptides 1–4). The number of nmol of a cleaved peptide produced over time was then used to calculate the specific activity in pmol product/min/100 pmol PSA to compare the different substrate peptide between each other.

[5] abbreviates: 4 h incubation with DU145 cells at 100 μM.

Usually half-life stands for the time in which the quantity being followed falls by half. High values mean slow decline, low ones rapid decline. By IC50 is commonly meant the midpoint of a concentration-inhibition curve. The Ki is a measure of affinity in units of concentration, obtained from inhibition or displacement.

Where a SMILES comes first, the peptide text is derived from it.

Take `CC(=O)N[C@H](CC(C)C)C(=O)N[C@@H](CC(C)C)C(=O)N[C@@H](CC(C)C)C(=O)N[C@@H](CC(C)C)C(=O)N[C@@H](CCCNC(=N)N)C(=O)N[C@H](C(=O)N[C@@H](CCCCN)C(=O)NCc1ccc(C(=N)N)cc1)C(C)C` [C23, Ac-[DLeu]LLLRVK-amidinobenzylamide] (HELM PEPTIDE1{[ac].[dL].L.L.L.R.V.K.[N=C(N)c1ccc(CN[*:1])cc1]}$$$$V2.0): the “in vivo half-life (t1/2)” value in series [1] was 9 ± 3 min. Also, the “time post-injection after which rapidly eliminated” value in series [1] (radiolabeled version) is given as 20 min. The same compound gave a half-life in “in vitro” of 104 ± 3.6 min.

For `CC(C)C[C@H](NC(=O)Cc1ccc(NC(=O)[C@H](CC(C)C)NC(=O)[C@@H](N)CO)cc1)C(=O)N[C@@H](CC(C)C)C(=O)N[C@@H](CC(C)C)C(=O)N[C@@H](CC(C)C)C(=O)N[C@@H](CCCNC(=N)N)C(=O)N[C@H](C(=O)N[C@@H](CCCCN)C(=O)N[C@@H](CCCNC(=N)N)C(N)=O)C(C)C` [Peptide 2] (HELM PEPTIDE1{S.L.[O=C(Cc1ccc(N[*:1])cc1)[*:2]].L.L.L.L.R.V.K.R.[am]}$$$$V2.0), the figures for the IC50 with DU145 cells [2] and in the series with LNCaP cells were 19 ± 7 µM and 50 ± 10 µM, respectively. For the same compound, at recombinant human PACE4, the Ki was 68 ± 10 nM. Moreover, the “LDH release relative to the untreated cells” value in the series with DU145 cells [3] (4 h incubation with DU145 cells at the IC50 concentration) was < 5%. In the series with DU145 cells [3], the “LDH release DU145” value was < 5%.

With `CC(C)C[C@H](NC(=O)CCCNC(=O)[C@H](CC(C)C)NC(=O)[C@@H](N)CO)C(=O)N[C@@H](CC(C)C)C(=O)N[C@@H](CC(C)C)C(=O)N[C@@H](CC(C)C)C(=O)N[C@@H](CCCNC(=N)N)C(=O)N[C@H](C(=O)N[C@@H](CCCCN)C(=O)N[C@@H](CCCNC(=N)N)C(N)=O)C(C)C` [Peptide 3] (HELM PEPTIDE1{S.L.[O=C(CCCN[*:1])[*:2]].L.L.L.L.R.V.K.R.[am]}$$$$V2.0), the Ki on recombinant human PACE4 was 56 ± 4 nM. Moreover, the “LDH release relative to the untreated cells” value in the series with DU145 cells [3] (setting [5]) is < 5%. Also, the “LDH release DU145” value in the series on DU145 cells [3] is on record as < 5%.

As for `CC(C)C[C@H](NC(=O)COCCOCCNC(=O)[C@H](CC(C)C)NC(=O)[C@@H](N)CO)C(=O)N[C@@H](CC(C)C)C(=O)N[C@@H](CC(C)C)C(=O)N[C@@H](CC(C)C)C(=O)N[C@@H](CCCNC(=N)N)C(=O)N[C@H](C(=O)N[C@@H](CCCCN)C(=O)N[C@@H](CCCNC(=N)N)C(N)=O)C(C)C` [Peptide 4] (HELM PEPTIDE1{S.L.[O=C(COCCOCCN[*:1])[*:2]].L.L.L.L.R.V.K.R.[am]}$$$$V2.0), the Ki at recombinant human PACE4 was 62 ± 3 nM. The “LDH release relative to the untreated cells” value with DU145 cells [3] (setting [5]) is given as < 5%. Further, the “LDH release DU145” value in the series with DU145 cells [3] is recorded as < 5%.

As for “Ac-LLLLRVKR-NH2 [ML, reference compound]”, the IC50 is 90 ± 2 µM with DU145 cells [2] and 130 ± 10 µM with LNCaP cells. Further, in the series with DU145 cells [3], the “LDH release DU145” value is < 5%. The same compound registered a half-life in “in vitro” of 7.8 ± 2.3 min.

For “EMC-RSSYYSLLLLLRVKR-NH2 ({EMC}-RSSYYSLLLLLRVKR-NH2) [Ligand 1]”, in series [4], the “time to full conjugation to MSA” value stood at 1 h.

As to “EMC-RSSYYSL[4-Apaa]LLLLRVKR-NH2 [Ligand 2]”, the “time to full conjugation to MSA” value in series [4] was found to be 1 h.

On to MSA-EMC-RSSYYSLLLLLRVKR-NH2 [prodrug 1], for which, at human PSA (hPSA), the “release of the ML derivative by hPSA” value is on record as “no release product was detected”.
